Reference: patent US20190240225A1, “COMBINATION OF A BCL-2 INHIBITOR AND A MCL-1 INHIBITOR, USES AND PHARMACEUTICAL COMPOSITIONS THEREOF” (LES LABORATOIRES SERVIER, priority 2016, published 2019)
pIC50: −log10 of the molar value.

Legend:
[1] = tested on: Karpas 422 human B-cell non-Hodgkin's lymphoma xenografts; assay: Lymphoma Karpas422 xenograft model in rats; assay type: in vivo; details: day 34; p<0.05; Compound 3 20 mg/kg iv QW; Compound 1 150 mg/kg po QW
Description: Karpas 422 human B-cell non-Hodgkin's lymphoma (NHL) cell line was established from the pleural effusion of a patient with chemotherapy-resistant NHL. The cells were obtained from the DSMZ cell bank and cultured in RPMI-1640 medium (BioConcept Ltd. Amimed,) supplemented with 10% FCS (BioConcept Ltd. Amimed), 2 mM L-glutamine (BioConcept Ltd. Amimed), 1 mM sodium pyruvate (BioConcept Ltd. Amimed) and 10 mM HEPES (Gibco) at 37° C. in an atmosphere of 5% CO2 in air. Cells were maintained between 0.5 and 1.5×10^6 cells/mL. […]
Tumour growth was monitored regularly post cell inoculation and animals were randomised into treatment groups (n=5) when tumour volume reached appropriate volume. During the treatment period tumour volume was measured about twice a week using calipers. Tumour size, in mm^3, was calculated from: (L×W2×π/6). […]
Tumour data were analyzed statistically using GraphPad Prism 7.00 (GraphPad Software). If the variances in the data were normally distributed, the data were analyzed using one-way ANOVA with post hoc Dunnett's test for comparison of treatment versus control group. […]
As a measure of efficacy the % T/C value is calculated at the end of the experiment according to: […]
Tumour regression was calculated according to: […]

NAN8 = assay: MTT cell viability assay, myeloma cell line; assay type: cell-based, human; details: Homo sapiens, single agent, read-out: IC50
Description: (§1) Cell lines: Human myeloma cell lines (HMCLs) were derived from primary myeloma cells cultured in RPMI 1640 medium supplemented with 5% fetal calf serum from and 3 ng/mL recombinant IL-6 for IL-6 dependent cell lines. HMCLs are representative of phenotypic and genomic heterogeneity and the variability in patient's response to therapy.
(§2) MTT assay: Cell viability is measured using MTT (3-(4,5-dimethylthiazol-2-yl)-2,5-diphenyltetrazolium bromide) colorimetric survival assay. Cells are incubated with compounds in 96-well plates containing a final volume of 100 μl/well time. (2R)-2-{[(5Sa)-5-{3-chloro-2-methyl-4-[2-(4-methylpiperazin-1-yl)ethoxy]phenyl}-6-(5-fluorofuran-2-yl)thieno[2,3-d]pyrimidin-4-yl]oxy}-3-(2-{[1-(2,2,2-trifluoroethyl)-1H-pyrazol-5-yl]methoxy}phenyl)propanoic acid (Compound 2) is used at 9 different concentrations accordingly to single agent sensitivity. N-(4-hydroxyphenyl)-3-{6-[((3S)-3-(4-morpholinylmethyl)-3,4-dihydro-2(1H)-isoquinolinyl)carbonyl]-1,3-benzodioxol-5-yl}-N-phenyl-5,6,7,8-tetrahydro-1-indolizine carboxamide hydrochloride (Compound 1, HCl) is used at a fixed dose—1 μM. At the end of each treatment, cells are incubated with 1 mg/mL MTT (50 μl MTT solution 2.5 mg/ml for each well) at 37° C. for 3 hours allowing the MTT to be metabolized. Lysis buffer (100 μl Lysis buffer: DMF (2:3)/SDS (1:3)) is added into each well to dissolve formazan cristals and after 18 h of incubation, absorbance in viable cells is measured at 570 nm using a spectrophotometer.
(§3) The sensitivity of 27 human multiple myeloma cell lines to Compound 1, Compound 2 or to Compound 2 in the presence of 1 μM of Compound 1 was analyzed by using MTT cell viability assay. 50% inhibitory concentrations (IC50, in nM) were determined.

MM1S = assay: MTT cell viability assay, myeloma cell line; assay type: cell-based, human; details: Homo sapiens, MM1.S, single agent, read-out: IC50
Description: as §1, §2, §3

XG7 = assay: MTT cell viability assay, myeloma cell line; assay type: cell-based, human; details: Homo sapiens, single agent, read-out: IC50
Description: as §1, §2, §3

KMS12BM = assay: MTT cell viability assay, myeloma cell line; assay type: cell-based, human; details: Homo sapiens, KMS-12-BM, single agent, read-out: IC50
Description: as §1, §2, §3

U266 = assay: MTT cell viability assay, myeloma cell line; assay type: cell-based, human; details: Homo sapiens, U-266, single agent, read-out: IC50
Description: as §1, §2, §3

KMS11 = assay: MTT cell viability assay, myeloma cell line; assay type: cell-based, human; details: Homo sapiens, KMS-11, single agent, read-out: IC50
Description: as §1, §2, §3

ANBL6 = assay: MTT cell viability assay, myeloma cell line; assay type: cell-based, human; details: Homo sapiens, ANBL-6, single agent, read-out: IC50
Description: as §1, §2, §3

NCI-H929 = assay: MTT cell viability assay, myeloma cell line; assay type: cell-based, human; details: Homo sapiens, single agent, read-out: IC50
Description: as §1, §2, §3

KMM1 = assay: MTT cell viability assay, myeloma cell line; assay type: cell-based, human; details: Homo sapiens, KMM-1, single agent, read-out: IC50
Description: as §1, §2, §3

NAN9 = assay: MTT cell viability assay, myeloma cell line; assay type: cell-based, human; details: Homo sapiens, single agent, read-out: IC50
Description: as §1, §2, §3

L363 = assay: MTT cell viability assay, myeloma cell line; assay type: cell-based, human; details: Homo sapiens, L-363, single agent, read-out: IC50
Description: as §1, §2, §3

XG6 = assay: MTT cell viability assay, myeloma cell line; assay type: cell-based, human; details: Homo sapiens, single agent, read-out: IC50
Description: as §1, §2, §3

OPM2 = assay: MTT cell viability assay, myeloma cell line; assay type: cell-based, human; details: Homo sapiens, OPM-2, single agent, read-out: IC50
Description: as §1, §2, §3

BCN = assay: MTT cell viability assay, myeloma cell line; assay type: cell-based, human; details: Homo sapiens, single agent, read-out: IC50
Description: as §1, §2, §3

Compound | tumour response versus vehicle group [1] | pIC50 (NAN8) | pIC50 (MM1S) | pIC50 (XG7) | pIC50 (KMS12BM) | pIC50 (U266) | pIC50 (KMS11) | pIC50 (ANBL6) | pIC50 (NCI-H929) | pIC50 (KMM1) | pIC50 (NAN9) | pIC50 (L363) | pIC50 (XG6) | pIC50 (OPM2) | pIC50 (BCN)
COc1ccccc1-c1nccc(COc2ccccc2C[C@@H](Oc2ncnc3sc(-c4ccc(F)cc4)c(-c4ccc(OCCN5CCN(C)CC5)c(Cl)c4C)c23)C(=O)O)n1 [Compound 3, (2R)-2-{[(5Sa)-5-{3-chloro-2-methyl-4-[2-(4-methylpiperazin-1-yl)ethoxy]phenyl}-6-(4-fluorophenyl)thieno[2,3-d]pyrimidin-4-yl]oxy}-3-(2-{[2-(2-methoxyphenyl)pyrimidin-4-yl]methoxy}phenyl)propanoic acid] | significantly different from the vehicle group |  |  |  |  |  |  |  |  |  |  |  |  |  | 
Cl.O=C(c1cc(-c2cc3c(cc2C(=O)N2Cc4ccccc4C[C@H]2CN2CCOCC2)OCO3)n2c1CCCC2)N(c1ccccc1)c1ccc(O)cc1 [Compound 1, HCl, N-(4-hydroxyphenyl)-3-{6-[((3S)-3-(4-morpholinylmethyl)-3,4-dihydro-2(1H)-isoquinolinyl)carbonyl]-1,3-benzodioxol-5-yl}-N-phenyl-5,6,7,8-tetrahydro-1-indolizine carboxamide hydrochloride] |  | 5.04 | 4.67 | 4.74 | 5.86 | < 4.52 | 4.98 | 5.72 | 4.80 | 4.62 | 4.64 | 5.12 | 5.07 | 5.19 | 4.65
